Source: patent US11584747B2, “Substituted pyridopyrimidinonyl compounds useful as T cell activators” (BRISTOL-MYERS SQUIBB COMPANY, priority 2019, dated 2023)
Where two headings read alike, the source gives them in different places.

Assays:
[1] = system: human venous whole blood (IFN-γ); assay: Human whole blood IFN-γ assay; format: cell-based
Description: Human venous whole blood (22.5 μL per well), obtained from healthy donors, was pre-treated with compounds for one hour at 37° C. in a humidified 95% air/5% CO2 incubator. The blood was stimulated with 2.5 μL anti-human CD3 and anti-CD28 mAb at a final concentration of 1 μg/mL each for 24 hours at 37° C. IFN-γ in the supernatants was measured using AlphLISA kit (Cat #AL217).

human DGKζ = human DGKζ (Homo sapiens (Human), UniProt Q13574); assay: DGKζ LIPGLO assay (extruded liposome substrate, ADP-Glo luminescence); format: biochemical
Chain of human DGKζ (Q13574 other isoform, or with tags, fused parts or gaps): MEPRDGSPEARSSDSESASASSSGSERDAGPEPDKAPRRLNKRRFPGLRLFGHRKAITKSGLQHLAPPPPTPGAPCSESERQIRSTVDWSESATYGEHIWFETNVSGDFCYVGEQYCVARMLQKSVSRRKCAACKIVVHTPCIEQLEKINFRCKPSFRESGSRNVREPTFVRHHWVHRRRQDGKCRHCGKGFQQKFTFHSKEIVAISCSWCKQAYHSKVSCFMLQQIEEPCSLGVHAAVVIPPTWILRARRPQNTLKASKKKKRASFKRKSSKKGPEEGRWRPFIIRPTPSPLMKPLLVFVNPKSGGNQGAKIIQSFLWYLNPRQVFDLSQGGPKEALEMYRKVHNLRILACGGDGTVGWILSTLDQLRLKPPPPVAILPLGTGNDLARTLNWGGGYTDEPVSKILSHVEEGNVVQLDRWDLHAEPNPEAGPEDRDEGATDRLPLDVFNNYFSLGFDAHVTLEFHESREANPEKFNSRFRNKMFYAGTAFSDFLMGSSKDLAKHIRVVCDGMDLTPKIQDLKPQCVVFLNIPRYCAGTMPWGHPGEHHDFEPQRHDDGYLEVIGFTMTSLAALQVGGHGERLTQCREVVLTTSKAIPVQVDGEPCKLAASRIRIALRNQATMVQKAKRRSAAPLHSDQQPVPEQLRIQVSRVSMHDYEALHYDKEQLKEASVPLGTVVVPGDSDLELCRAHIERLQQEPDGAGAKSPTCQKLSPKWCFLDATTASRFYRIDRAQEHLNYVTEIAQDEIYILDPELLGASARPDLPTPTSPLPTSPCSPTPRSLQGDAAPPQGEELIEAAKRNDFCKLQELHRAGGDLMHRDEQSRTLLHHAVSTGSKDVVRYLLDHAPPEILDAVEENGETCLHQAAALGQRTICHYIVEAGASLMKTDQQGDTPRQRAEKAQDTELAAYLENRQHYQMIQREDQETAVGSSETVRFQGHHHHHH

human DGKα = human DGKα (Homo sapiens (Human), UniProt P23743); assay: DGKα ADPGLO assay (detergent/lipid micelle substrate); format: biochemical
Chain of human DGKα (P23743 whole entry, looked up, the tested form may be a part): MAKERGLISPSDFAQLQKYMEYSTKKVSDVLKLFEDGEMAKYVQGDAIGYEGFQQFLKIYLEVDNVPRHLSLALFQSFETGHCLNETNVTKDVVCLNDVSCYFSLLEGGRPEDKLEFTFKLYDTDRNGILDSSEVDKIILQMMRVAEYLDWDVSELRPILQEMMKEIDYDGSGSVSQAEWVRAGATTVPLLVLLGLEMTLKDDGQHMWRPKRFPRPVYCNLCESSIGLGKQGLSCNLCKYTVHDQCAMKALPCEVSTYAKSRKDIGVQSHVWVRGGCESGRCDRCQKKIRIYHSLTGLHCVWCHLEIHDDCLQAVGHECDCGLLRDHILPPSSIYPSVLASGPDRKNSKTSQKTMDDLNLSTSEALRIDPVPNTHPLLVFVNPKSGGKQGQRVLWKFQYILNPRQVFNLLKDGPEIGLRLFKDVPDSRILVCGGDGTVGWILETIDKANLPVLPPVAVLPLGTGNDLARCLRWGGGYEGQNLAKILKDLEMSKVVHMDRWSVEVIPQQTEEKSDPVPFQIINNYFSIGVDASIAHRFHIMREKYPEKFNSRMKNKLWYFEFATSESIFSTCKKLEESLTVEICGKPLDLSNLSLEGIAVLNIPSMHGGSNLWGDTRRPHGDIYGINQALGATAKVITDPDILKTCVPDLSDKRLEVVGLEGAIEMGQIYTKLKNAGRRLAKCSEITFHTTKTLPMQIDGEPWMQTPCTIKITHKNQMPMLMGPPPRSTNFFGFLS
Description: DGK Alpha ADPGLO (Truncated) IC50 (uM)
The detergent/lipid micelle was prepared by combining 15 g phosphatidylserine (Avanti 840035P) and 1 g diacylglycerol (8008110) and dissolving into 150 mL chloroform in a 2 L round bottom flask. Chloroform was removed under high vacuum by rotary evaporation. […] The lipid/detergent solution was split into 5 mL aliquots and stored at −80° C.

[2] = Homo sapiens, whole blood, normalized to 3 μM reference compound as 100% activation, read-out: IFN-γ Whole Blood Normalized EC50
[3] = liposome assay, read-out: DGK zeta LIPGLO IC50
[4] = truncated DGK alpha, read-out: DGK alpha ADPGLO (Truncated) IC50
[5] = human whole blood, anti-CD3 plus anti-CD28 stimulation, 24 hours, read-out: IFN-γ Whole Blood EC50
[6] = liposome (LIPGLO) assay, read-out: DGK zeta (liposome assay) IC50
[7] = ADPGLO assay, read-out: DGK alpha ADPGLO IC50
[8] = whole blood, normalized to 3 μM reference compound as 100% activation, read-out: IFN-γ Whole Blood Normalized EC50

| SMILES | IC50 (human DGKζ; [3]) [nM] | IC50 (human DGKα; [4]) [nM] | EC50 [1, 5] [nM] | IC50 (human DGKζ; [6]) [nM] | IC50 (human DGKα; [7]) [nM] | EC50 [1, 2] [nM] | EC50 [1, 8] [nM] |
| --- | --- | --- | --- | --- | --- | --- | --- |
| CC[C@@H]1CN(c2nc(=O)n(C)c3ccc(C#N)nc23)[C@@H](C)CN1C(c1ccc(F)cc1)c1csc(C(F)(F)F)n1 (stereo partly drawn) [Example 296, 4-((2S,5R)-5-ethyl-4-((4-fluorophenyl)(2-(trifluoromethyl)thiazol-4-yl)methyl)-2-methylpiperazin-1-yl)-1-methyl-2-oxo-1,2-dihydropyrido[3,2-d]pyrimidine-6-carbonitrile] | 140 | 460 |  |  |  | 36 |  |
| CC(c1ccc(CN2CCOC(C)(C)C2)cc1)N1C[C@H](C)N(c2nc(=O)n(C)c3ccc(C#N)nc23)C[C@H]1C (single isomer, unassigned) [Example 386] |  |  | 2490 | 5070 | 2700 |  |  |
| CC(c1ccc(CN2C[C@@H]3C[C@H]2CO3)cc1)N1C[C@H](C)N(c2nc(=O)n(C)c3ccc(C#N)nc23)C[C@H]1C (stereo partly drawn) [Example 388, 4-((2S,5R)-4-(1-(4-(((1S,4S)-2-oxa-5-azabicyclo[2.2.1]heptan-5-yl)methyl)phenyl)ethyl)-2,5-dimethylpiperazin-1-yl)-1-methyl-2-oxo-1,2-dihydropyrido[3,2-d]pyrimidine-6-carbonitrile] |  |  | 20000 | 45700 | 1750 |  |  |
| CC[C@@H]1CN(c2nc(=O)n(C)c3ccc(C#N)nc23)[C@@H](CC)CN1Cc1ccc(C(F)(F)F)cc1F [Example 204, 4-((2S,5R)-2,5-diethyl-4-(2-fluoro-4-(trifluoromethyl)benzyl)piperazin-1-yl)-1-methyl-2-oxo-1,2-dihydropyrido[3,2-d]pyrimidine-6-carbonitrile] | 1410 | 120 |  |  |  | 410 |  |
| CC[C@H]1CN(C(C)c2cnc(C(F)(F)F)nc2)[C@H](CC)CN1c1nc(=O)n(C)c2ccc(C#N)nc12 (stereo partly drawn) [Example 226, 4-((2S,5R)-2,5-diethyl-4-(1-(2-(trifluoromethyl)pyrimidin-5-yl)ethyl)piperazin-1-yl)-1-methyl-2-oxo-1,2-dihydropyrido[3,2-d]pyrimidine-6-carbonitrile] | 2650 | 1210 |  |  |  |  | 5600 |
| CC[C@@H]1CN(c2nc(=O)n(C)c3ccc(C#N)nc23)[C@@H](C)CN1C(C)c1ccc2oc(=O)n(C)c2c1 (stereo partly drawn) [Example 298, 4-((2S,5R)-5-ethyl-2-methyl-4-(1-(3-methyl-2-oxo-2,3-dihydrobenzo[d]oxazol-5-yl)ethyl)piperazin-1-yl)-1-methyl-2-oxo-1,2-dihydropyrido[3,2-d]pyrimidine-6-carbonitrile] | 380 | 480 |  |  |  |  | 420 |
| CC(c1ccc(CN2C[C@@H]3C[C@H]2CO3)cc1)N1C[C@H](C)N(c2nc(=O)n(C)c3ccc(C#N)nc23)C[C@H]1C (stereo partly drawn) [Example 387, 4-((2S,5R)-4-(1-(4-(((1S,4S)-2-oxa-5-azabicyclo[2.2.1]heptan-5-yl)methyl)phenyl)ethyl)-2,5-dimethylpiperazin-1-yl)-1-methyl-2-oxo-1,2-dihydropyrido[3,2-d]pyrimidine-6-carbonitrile] |  |  | 770 | 6070 | 1930 |  |  |
| CC[C@@H]1CN(c2nc(=O)n(C)c3ccc(C#N)nc23)[C@@H](C)CN1C(c1ccc(F)cc1)c1csc(C(F)(F)F)n1 (stereo partly drawn) [Example 297, 4-((2S,5R)-5-ethyl-4-((4-fluorophenyl)(2-(trifluoromethyl)thiazol-4-yl)methyl)-2-methylpiperazin-1-yl)-1-methyl-2-oxo-1,2-dihydropyrido[3,2-d]pyrimidine-6-carbonitrile] | 110 | 110 |  |  |  |  | 53 |

Further lines, with some results ahead:

| IC50 (human DGKζ; [3]) [nM] | IC50 (human DGKα; [4]) [nM] | EC50 [1, 5] [nM] | IC50 (human DGKζ; [6]) [nM] | IC50 (human DGKα; [7]) [nM] | SMILES | EC50 [1, 2] [nM] | EC50 [1, 8] [nM] |
| --- | --- | --- | --- | --- | --- | --- | --- |
| 88 | 87 |  |  |  | CCC(c1ccc(OCC2CC2)cc1)N1C[C@H](CC)N(c2nc(=O)n(C)c3ccc(C#N)nc23)C[C@H]1CC (stereo partly drawn) [Example 216, 4-((2S,5R)-4-(1-(4-(cyclopropylmethoxy)phenyl)propyl)-2,5-diethylpiperazin-1-yl)-1-methyl-2-oxo-1,2-dihydropyrido[3,2-d]pyrimidine-6-carbonitrile] |  | 12 |
| 4130 | 460 |  |  |  | CCC(c1ccc(C(F)(F)F)nc1)N1C[C@H](CC)N(c2nc(=O)n(C)c3ccc(C#N)nc23)C[C@H]1CC (stereo partly drawn) [Example 225, 4-((2S,5R)-2,5-diethyl-4-(1-(6-(trifluoromethyl)pyridin-3-yl)propyl)piperazin-1-yl)-1-methyl-2-oxo-1,2-dihydropyrido[3,2-d]pyrimidine-6-carbonitrile] |  | 610 |
|  |  | 20000 | 250000 | 12200 | CCC(c1ccc(C(F)(F)F)cc1)N1C[C@H](CC)N(c2nc(=O)n(C)c3ccc(OC)nc23)C[C@H]1CC (stereo partly drawn) [Example 436, 4-((2S,5R)-2,5-diethyl-4-(1-(4-(trifluoromethyl)phenyl)propyl)piperazin-1-yl)-6-methoxy-1-methylpyrido[3,2-d]pyrimidin-2(1H)-one] |  |  |
| 12700 | 10 |  |  |  | CC[C@H]1CN(C(C)c2ccc(CO)cc2)[C@H](CC)CN1c1nc(=O)n(C)c2ccc(C#N)nc12 (stereo partly drawn) [Example 271, 4-((2S,5R)-2,5-Diethyl-4-(1-(4-(hydroxymethyl)phenyl)ethyl)piperazin-1-yl)-1-methyl-2-oxo-1,2-dihydropyrido[3,2-d]pyrimidine-6-carbonitrile] |  | 14400 |
| 970 | 46 |  |  |  | CC[C@H]1CN(C(c2ccc(F)cc2)c2csc(C(F)(F)F)n2)[C@H](CC)CN1c1nc(=O)n(C)c2ccc(C#N)nc12 (stereo partly drawn) [Example 210, 4-((2S,5R)-2,5-diethyl-4((4-fluorophenyl)(2-(trifluoromethyl)thiazol-4-yl)methyl)piperazin-1-yl)-1-methyl-2-oxo-1,2-dihydropyrido[3,2-d]pyrimidine-6-carbonitrile] | 31 |  |
| 17000 | 850 |  |  |  | CC[C@H]1CN(C(C)c2ccc(OC(C)(C)COC)cc2)[C@H](CC)CN1c1nc(=O)n(C)c2ccc(C#N)nc12 (stereo partly drawn) [Example 189] |  | 450 |
| 1380 | 120 |  |  |  | CC[C@H]1CN(C(C)c2ccc(CN3CCOC(C)(C)C3)cc2)[C@H](CC)CN1c1nc(=O)n(C)c2ccc(C#N)nc12 (stereo partly drawn) [Example 276, 4-((2S,5R)-4-(1-(4-((2,2-dimethylmorpholino)methyl)phenyl)ethyl)-2,5-diethylpiperazin-1-yl)-1-methyl-2-oxo-1,2-dihydropyrido[3,2-d]pyrimidine-6-carbonitrile] |  | 3560 |
| 100 | 46 |  |  |  | CC[C@H]1CN(C(c2ccc(F)cc2)c2csc(C(F)(F)F)n2)[C@H](CC)CN1c1nc(=O)n(C)c2ccc(C#N)nc12 (stereo partly drawn) [Example 211, 4-((2S,5R)-2,5-diethyl-4((4-fluorophenyl)(2-(trifluoromethyl)thiazol-4-yl)methyl)piperazin-1-yl)-1-methyl-2-oxo-1,2-dihydropyrido[3,2-d]pyrimidine-6-carbonitrile] |  | 18 |
| 110 | 15 |  |  |  | CCC(c1ccc(Cl)cc1F)N1C[C@H](CC)N(c2nc(=O)n(C)c3ccc(C#N)nc23)C[C@H]1CC (stereo partly drawn) [Example 238, 4-((2S,5R)-4-(1-(4-chloro-2-fluorophenyl)propyl)-2,5-diethylpiperazin-1-yl)-1-methyl-2-oxo-1,2-dihydropyrido[3,2-d]pyrimidine-6-carbonitrile] |  | 23 |
